The results in this text go back to patent US4994488A, “Novel imidate insecticides” (ICI Americas Inc., priority 1989, dated 1991).

For orientation: mortality means the share of the test organisms that died. The low end stands for a weak lethal effect, the high end for a strong lethal effect.

Assay type in all cases: in vivo
Test [1] concerns two-spotted mite [Tetranychus urticae (Koch)], adults. The experiment in a line: Two-spotted mite acaricidal test, adults (2SM-A). Particulars: percent of test compound in solution, 5-7 days. As to the method:
(§1) The compounds in Table 1 above were tested for insecticidal activity using the following testing procedures. LC50 values, based on the results of these tests and calculated according to dosage-mortality curves, are expressed in Table 2.
(§2) Acaricidal Evaluation Test
(§3) The two-spotted mite (2SM) [Tetranychus urticae (Koch)]was employed in tests for miticides. The test procedure was as follows:
(§4) Pinto bean plants (Phaseolus sp.), approximately 10 cm tall, were transplanted into sandy loam soil in small cups and thoroughly infested with two-spotted mites of mixed ages and sexes. Twenty-four hours later the infested plants were inverted and dipped for 2-3 seconds in 50--50 acetone-water solutions of the test compound. Treated plants were held in the greenhouse, and 5-7 days later mortality was determined for both adult mites and the nymphs hatching from eggs which were on the plants at the time of treatment. Test concentrations ranged from 0.05% downward. The LC-50 value is expressed below in Table 2 under the headings "2SM-A" (i.e., adults) and "2SM-E" (i.e. eggs) in terms of percent concentration of the test compound in the solution.

Test [2] deals with two-spotted mite [Tetranychus urticae (Koch)], eggs. Put plainly: Two-spotted mite acaricidal test, eggs (2SM-E). Particulars: percent of test compound in solution; nymphs hatching from eggs; 5-7 days. As to the method: as §1, §2, §3, §4
Test [3] concerns Tobacco Budworm [Heliothis virescens (Fabricius)], eggs. Put plainly: Tobacco budworm egg test (TBW-E). As to conditions: percent of test compound in solution; 2-day old eggs. As to the method:
The compounds in Table 1 above were tested for insecticidal activity using the following testing procedures.
(§5) Tobacco Budworm [Heliothis virescens (Fabricius)]
(b). Eggs: Paper towel patches of 2-day old eggs of the tobacco budworm were dipped in acetone solutions of the test compound and placed in petri dishes containing a portion of larval rearing medium. […] Test concentrations ranged from 0.1% downward. The LC-50 value is expressed below in Table 2 under the heading "TBW-E" in terms of percent of the test compound in the solution.

The subject of test [4] is Western Spotted Cucumber Beetle Larvae [Diabrotica undecimpunctata undecimpunctata (Mannherheim)]. Put plainly: Western spotted cucumber beetle larvae soil test (Diabrotica). As to conditions: ppm of test compound in the soil. On the procedure:
as §1
Western Spotted Cucumber Beetle Larvae[Diabrotica undecimpunctata undecimpunctata (Mannherheim)]
Ten grams of moist potting soil was placed in a plastic cup. The test compound was dissolved in acetone. A 0.05 ml aliquot of the test sample, diluted to the desired concentration, was added to the soil. The cup was capped and the soil was mixed on a vortex mixer for approximately 15 seconds. An indentation was made on the surface of the soil and approximately 50 Diabrotica eggs were added. The eggs were covered with soil and maintained at room temperature (approximately 70° F. or 21° C.). Four days later a section of Romaine lettuce (Latuca sativa) leaf was placed in the treated cups. One week later the cups were examined for live larvae. TEst concentrations ranged from 25 ppm downward. The LC-50 value is expressed below in Table 2 under the heading "Diabrotica" in terms of ppm of the test compound in the soil.

Test [5] concerns Tobacco Budworm [Heliothis virescens (Fabricius)], larvae. Put plainly: Tobacco budworm contact test, larvae (TBW-C). Particulars: percent of test compound in solution; second-instar larvae; 5 days. On the procedure: as §1, §5
(a) Contact: Test compounds were diluted in a 50--50 acetonewater solution. Cotton (Gossypium sp.) cotyledons were immersed in the test solutions for 2-3 seconds and placed on a wire screen to dry. The dried leaves were placed in petri dishes containing a moistened piece of filter paper and infested with 5 second-instar tobacco budworm larvae. The dishes were placed in a high humidity chamber for 5 days, and percent mortality of the larvae recorded. Test concentrations ranged from 0.1% downward. The LC-50 values are expressed below in Table 2 under the heading "TBW-C" in terms of percent of the test compound in the solution.

Test [6] has as its system Maize weevil (Sitophilus zeamais [Motschulsky]). The experiment in a line: Maize weevil test on treated corn seeds. Particulars: 0.01% test solution, 48 hours, about 25° C. On the procedure: Maize weevil (Sitophilus zeamais [Motschulsky])
Test compounds were diluted in a 50:50 acetone:water solution to a concentration of 0.01%. Four corn seeds [Zea mays, (L.)]which had been immersed in test solutions for 2-3 seconds and allowed to dry were placed in covered containers at a temperature of about 25° C. Mortality was recorded after 48 hours.

In the case of `CC1CC1C(=Nc1ccc(Cl)cc1)OCc1cccc(Oc2ccccc2)c1` (centres unmarked) [Compound 2], the “LC50 2-SM A (adults)” value in test [1] is reported as above 0.05%. In addition, in test [2], the “LC50 2-SM E (eggs)” value is recorded as above 0.05%. The “LC50 TBW E (eggs)” value in test [3] is given as above 0.01%. Besides, the “LC50 Diabrotica” value in test [4] was > 25 ppm (soil).

With `Clc1cccc(N=C(OCc2cccc(Oc3ccccc3)c2)C2CC2)c1` [Compound 3], the “LC50 2-SM A (adults)” value in test [1] is above 0.05%. In addition, in test [2], the “LC50 2-SM E (eggs)” value is given as above 0.05%. Besides, the “LC50 TBW E (eggs)” value in test [3] is recorded as 0.1%. In addition, the “LC50 Diabrotica” value in test [4] is reported as > 25 ppm (soil).

In the case of `Clc1ccc(N=C(OCc2cccc(Oc3ccccc3)c2)C2CC2)cc1` [Compound 4, N-(4-Chlorophenyl)-O-(3-phenoxybenzyl)cyclopropylcarboximidate], the “LC50 2-SM A (adults)” value in test [1] was found to be 0.01%. For the same compound, the “LC50 2-SM E (eggs)” value in test [2] was determined as 0.05%. For the same compound, the “LC50 TBW C (contact)” value in test [5] is reported as 0.006%. The “LC50 TBW E (eggs)” value in test [3] was 0.1%. Further, the “LC50 Diabrotica” value in test [4] is listed as > 25 ppm (soil).

With `Fc1ccc(N=C(OCc2cccc(Oc3ccccc3)c2)C2CC2)cc1` [Compound 5], the “LC50 2-SM A (adults)” value in test [1] is listed as 0.05%. The “LC50 2-SM E (eggs)” value in test [2] came out at 0.05%. In addition, the “LC50 TBW C (contact)” value in test [5] is listed as 0.01%. Also, the “LC50 TBW E (eggs)” value in test [3] is 0.08%. Also, the “LC50 Diabrotica” value in test [4] is given as > 25 ppm (soil).

Consider `FC(F)(F)c1ccc(N=C(OCc2cccc(Oc3ccccc3)c2)C2CC2)cc1` [Compound 6], for which the “LC50 2-SM A (adults)” value in test [1] was 0.01%. The “LC50 2-SM E (eggs)” value in test [2] is listed as above 0.05%. The “LC50 TBW C (contact)” value in test [5] was 0.0015%. Moreover, the “LC50 TBW E (eggs)” value in test [3] worked out at 0.025%. Besides, in test [4], the “LC50 Diabrotica” value is 25 ppm (soil).

`FC(F)(F)Oc1ccc(N=C(OCc2cccc(Oc3ccccc3)c2)C2CC2)cc1` [Compound 7]: the “LC50 2-SM A (adults)” value in test [1] is 0.01%. Further, in test [2], the “LC50 2-SM E (eggs)” value stood at 0.01%. Moreover, the “LC50 TBW C (contact)” value in test [5] was 0.001%. The “LC50 TBW E (eggs)” value in test [3] came to 0.05%. Besides, the “LC50 Diabrotica” value in test [4] is on record as 17 ppm (soil).

Regarding `FC(F)(F)c1ccc(N=C(OCc2cccc(Oc3ccccc3)c2)C2CC2)c(Cl)c1` [Compound 8], the “LC50 2-SM A (adults)” value in test [1] is reported as above 0.05%. In test [2], the “LC50 2-SM E (eggs)” value was above 0.05%. Moreover, the “LC50 TBW C (contact)” value in test [5] turned out to be 0.1%. Further, the “LC50 TBW E (eggs)” value in test [3] is given as above 0.1%. Besides, the “LC50 Diabrotica” value in test [4] is listed as 25 ppm (soil).

On to `Fc1ccc(N=C(OCc2cccc(Oc3ccccc3)c2)C2CC2)cc1Cl` [Compound 10], for which the “LC50 2-SM A (adults)” value in test [1] was above 0.05%. Further, the “LC50 2-SM E (eggs)” value in test [2] is given as above 0.05%. Besides, the “LC50 TBW E (eggs)” value in test [3] is given as 0.1%. The “LC50 Diabrotica” value in test [4] is reported as > 25 ppm (soil).

Turning to `CC1(C)C(C(=Nc2ccc(F)c(Cl)c2)OCc2cccc(Oc3ccccc3)c2)C1(C)C` [Compound 12], in test [1], the “LC50 2-SM A (adults)” value was determined as 0.05%. The “LC50 2-SM E (eggs)” value in test [2] was 0.05%. The “LC50 TBW E (eggs)” value in test [3] is on record as above 0.01%. Also, in test [4], the “LC50 Diabrotica” value is reported as > 25 ppm (soil).

In the case of `Fc1ccc(COC(=Nc2ccc(C(F)(F)F)cc2)C2CC2)cc1Oc1ccccc1` [Compound 15], in test [1], the “LC50 2-SM A (adults)” value is below 0.05%. The “LC50 2-SM E (eggs)” value in test [2] is below 0.05%. In test [3], the “LC50 TBW E (eggs)” value was determined as 0.017%. For the same compound, in test [4], the “LC50 Diabrotica” value was > 25 ppm (soil). In test [6], this compound returned a mortality at 0.01 % of 50%.

On to `Fc1ccc(COC(=Nc2ccc(C(F)(F)F)cc2)C2CC2)cc1Oc1ccc(Cl)cc1` [Compound 16], for which, in test [1], the “LC50 2-SM A (adults)” value is reported as above 0.05%. In test [2], the “LC50 2-SM E (eggs)” value is above 0.05%. Besides, the “LC50 TBW E (eggs)” value in test [3] was found to be 0.023%. Moreover, the “LC50 Diabrotica” value in test [4] is given as > 25 ppm (soil).
